Laboratory results published in patent US11077205B2, “Synthetic compound for improving efficiency of transfection” (Klinikum der Universität München, priority 2016, dated 2021).
The star is where a group is joined. ξ: configuration not given here. Lipoyl(6ξ) = O=C(CCCCC1CCSS1)*

Tested on: 16HBE cells
Assay: Cell endocytosis mechanism assay, uptake of Fluo-pDNA containing P704 based ternary complexes (flow cytometry)
Set-up: species or system human
Details: for endocytosis of ternary complexes in presence of free compound and its fragments (competition): FIG. 11c/11d
Method: In order to study the cellular uptake different binary and ternary complexes, 16 HBE cells (7×10^5/well) were seeded in 6-well plate 24 h before investigation. P704 based binary complexes were prepared by mixing P704 at the concentration of 63 (w/w) with Fluo-pDNA in Tyrode's solution. Compound 9 based binary complexes were prepared by mixing compound 9 at the N/P ratio of 5 with Fluo-pDNA in NF-water. P704 based ternary complexes consisted of P704 at the concentration of 63 (w/w), compound 0 (DL) or compound 9 at optimum N/P ratio and Fluo-pDNA. P304 based ternary complexes consisted of P304 at the concentration of 2000 (w/w), compound 8 at N/P ratio of 20 and Fluo-pDNA. P90R4 based ternary complexes consisted of P90R4 at the concentration of 1600 (w/w), compound 8 at N/P ratio of 15 and Fluo-pDNA. The amount of Fluo-pDNA in each sample was 4 μg/well. Naked Fluo-pDNA was served as a negative control. After 4 h incubation, medium was removed. The cells were harvested and rinsed with cold PBS for three times followed immediately by flow cytometry analysis. The amount of 10 000 live cells was collected for each sample.
With the purpose of identifying possible internalization mechanisms of ternary complexes by human bronchial epithelium cells, 16 HBE cells were pre-incubated at different temperatures or treated with specific agents at 37° C. for 1 h, then incubated with P704 based ternary complexes in the same conditions as described above. (I, II) To examine the effects of chlorpromazine and filipin, which were the clathrin- and caveolae-dependent endocytosis inhibitors, 10 μg/ml chlorpromazine or 1 μg/ml filipin in OptiMEM were used. (III) To study the effect of amiloride (macropinocytosis inhibitor), 0.3 mg/ml amiloride was adopted. (IV) To investigate the effect of protamine, an adsorptive-mediated endocytosis inhibitor, 1 mM protamine sulfate was added. […]

Row | Substance | cell uptake of ternary complexes at 4° C. and in the presence of NaN3 (FIG. 11a) | endocytosis of ternary complexes in presence of free compound and its fragments (competition)
1 | KETWWETWWTEWWTEW-KKKKRRRRRKKKK-GACSERSMNFCG (KETWWETWWTEWWTEWKKKKRRRRRKKKKGACSERSMNFCG) [compound 9] | Energy-dependent cell uptake | inhibited by free compound 9 and free peptide GACSERSMNFCG
2 | NH2-VKRKKKPKKRRRRKKWK(DL-lipoic acid)-CONH2 (H-VKRKKKPKKRRRRKKWK(Lipoyl(6ξ))-NH2; SMILES CC(C)[C@H](N)C(=O)N[C@@H](CCCCN)C(=O)N[C@@H](CCCNC(=N)N)C(=O)N[C@@H](CCCCN)C(=O)N[C@@H](CCCCN)C(=O)N[C@@H](CCCCN)C(=O)N1CCC[C@H]1C(=O)N[C@@H](CCCCN)C(=O)N[C@@H](CCCCN)C(=O)N[C@@H](CCCNC(=N)N)C(=O)N[C@@H](CCCNC(=N)N)C(=O)N[C@@H](CCCNC(=N)N)C(=O)N[C@@H](CCCNC(=N)N)C(=O)N[C@@H](CCCCN)C(=O)N[C@@H](CCCCN)C(=O)N[C@@H](Cc1c[nH]c2ccccc12)C(=O)N[C@@H](CCCCNC(=O)CCCCC1CCSS1)C(N)=O) [compound 0 (DL)] | – | cannot be inhibited by free compound 0 (DL) and its fragment sequence
